# Measurements published in paper PMC3715890, “A Cyclic Peptide Inhibitor of HIF-1 Heterodimerization That Inhibits Hypoxia Signaling in Cancer Cells” (Journal of the American Chemical Society, 2013).
# “Also recorded” adds a separate entry of the source.
# Columns and labels:
# [1] = tested on: CAIX mRNA in hypoxic U2OS cells; assay: CAIX mRNA qPCR, U2OS; type: cell-based, human; conditions: hypoxia, 100 μM
# Description: (§1) Cells were treated with the stated concentrations of inhibitor (P1, P2, or P3) and incubated in normoxia for 4 h, followed by incubation in a hypoxic environment. All manipulation of cell pellets (e.g., lysis, mRNA, and protein extraction) was conducted in a hypoxic environment.
# (§2) Total RNA was extracted from MCF-7 and U2OS cells using RNeasy Mini Kit (74104, QIAGEN) and quantified using a Nanodrop ND-1000 spectrophotometer. Complementary DNA was synthesized in a 20 μL reaction containing 1 μg of total RNA, using qScript cDNA SuperMix (95048-100, Quanta Biosciences) according to the manufacturer’s instructions. Quantitative real-time PCRs were performed using Universal Taqman PCR master mix (Applied Biosystems) >and the Taqman gene expression assay of interest (Applied Biosystems) on an ABI StepOnePlus Real-Time PCR system (Applied Biosystems). Expression assays used in this study were HIF-1α (00936376_m1), VEGF-A (Hs00173626_m1), CAIX (Hs00154208_m1), LOX (Hs00942480_m1), HIF2α (Hs01026149_m1), CITED2 (Hs01897804_s1), and 18S (Hs99999901_m1). All expression values were normalized using expression of 18S.
# [2] = tested on: tubule formation in hypoxic human umbilical vein endothelial cells (HUVEC); assay: HUVEC tubularization; type: cell-based; conditions: 250 μM
# [3] = tested on: U2OS-luc control cell line stably expressing luciferase; assay: Control constitutive luciferase reporter, U2OS-luc; type: cell-based, human
# Excerpt: Figure S3: Identification of cyclic peptide HIF-1 inhibitors. (A) SICLOPPS expression is induced by arabinose, which processes to give a member of the cyclic peptide library. A dimerization inhibitor would be expected to rescue growth of the HIF-1 RTHS on selective media plates containing IPTG, kanamycin and 3-amino-triazole, and arabinose. (B) The ability of the selected cyclic peptides to […]
# HIF-1 RTHS containing the corresponding SICLOPPS plasmid onto selective media. In the absence of arabinose the SICLOPPS split-intein is not produced; the HIF-1 RTHS containing plasmids encoding […]
# colonies show survival on selective media plates containing IPTG and arabinose (panel 2). Expressing the 3 selected cyclic peptides from mutant SICLOPPS inteins (H24A, F26A mutations in the C- […]
# cyclic form of the peptides and their activity. […]
# expressing a constitutive luciferase reporter construct. […]
# [4] = tested on: HIF-2 (HIF-dependent luciferase reporter, U2OS cells); assay: HIF-2 luciferase reporter assay, U2OS; type: cell-based, human; conditions: transfected HIF-2α
# Excerpt: (§3) In addition, P1 had no effect on VEGF protein levels in hypoxic 786-O cells (Figure 6B). To further probe the effect of P1 on HIF-2, a luciferase reporter assay was developed and used. The assay was derived from the HIF-1 luciferase reporter assay detailed above (Figure 2C and D) and adapted for HIF-2 by replacing the plasmid encoding HIF-1α with the equivalent plasmid encoding HIF-2α. […] P2 and P3 also had no effect on HIF-2 in this assay (Figure S9).
# (§4) Endogenous HIF-1 luciferase reporter assays were conducted as previously reported in U2OS-HRE-luc[15] and MCF-7 cells.[46] For plasmid-expressed HIF-α luciferase reporter assays, MCF-7 and U2OS cells were transiently transfected with plasmids expressing HIF-1α, HIF-2α, or a blank control (pcDNA3.1-HIF-1α, pcDNA3.1-HIF-2α, or pcDNA3.1), a renilla-encoding control (phRL-TK), and a HIF-dependent firefly luciferase reporter construct (pGL2-TK-HRE), using Transfast (Promega) according to the manufacturer’s instructions. After 24 h, cells were recovered and plated (4000 cells/well) in 96-well plates (Perkin-Elmer) and incubated for 5 h before either hypoxic or aerobic incubation in presence or absence of cyclic peptide inhibitors. Firefly and renilla activities were determined using Dual-Glo Reagent (Promega) according to the manufacturer’s instructions. The luciferase signal was normalized using the corresponding renilla values.
# PAS-B domain of HIF-1α = biological target: T1, PAS-B domain of HIF-1α (Homo sapiens, UniProt Q16665); assay: Isothermal titration calorimetry, PAS-B; type: binding; conditions: ITC, 25 °C, pH 7.5, 10 µM PAS-B
# T1 construct: Per-ARNT-Sim-B (PAS-B, amino acids 235–350) domains; His (N); made in house; host or cells: E. coli BL21(DE3)
# [5] = tested on: HIF-2 (HIF-dependent luciferase reporter, MCF-7 cells); assay: HIF-2 luciferase reporter assay, MCF-7; type: cell-based; conditions: MCF-7, transfected HIF-2α
# Excerpt: as §3, §4
# [6] = tested on: VEGF mRNA in hypoxic MCF-7 cells; assay: VEGF mRNA qPCR, MCF-7; type: cell-based; conditions: MCF-7, hypoxia 16 h, 100 μM
# Description: as §1, §2
# [7] = tested on: endogenous HIF-1α/HIF-1β interaction in MCF-7 cells; assay: In situ proximity ligation assay (PLA), MCF-7; type: cell-based; conditions: 100 μM, MCF-7, hypoxia (1% O2) 4 h
# Excerpt: The effect of P1 on the endogenous HIF-1α/HIF-1β interaction in intact cells was directly probed using an in situ proximity ligation assay (PLA);[30] primary antibodies (HIF-1α and HIF-1β here) raised in different species are bound by specific secondary antibodies that are tagged with a short DNA strand. The DNA on the interacting PLA probes forms a mini-plasmid that is amplified and bound by a red fluorescent dye. The HIF-1α/HIF-1β interaction is thus visualized as red dots in the DAPI-stained nuclei of MCF-7 and U2OS cells (Figure 4). We observed an increase in PLA signal in MCF-7 cells incubated in hypoxia (1% O2) for 4 h, indicating the expected formation of the HIF-1 dimer in hypoxia (Figure 4, panel 1 versus panel 2). […] The observed effect is not due to a reduction in HIF-1α by P1 (Western blot inset in Figure 4) and thus may be solely attributed to disruption of HIF-1α/HIF-1β dimers.
# as §1
# Duolink proximity ligation assay was conducted using the in situ PLA Kit (O-Link Bioscience, Uppsala, Sweden) according to the manufacturer’s instructions. […]
# T1 sequence (Q16665 235-350): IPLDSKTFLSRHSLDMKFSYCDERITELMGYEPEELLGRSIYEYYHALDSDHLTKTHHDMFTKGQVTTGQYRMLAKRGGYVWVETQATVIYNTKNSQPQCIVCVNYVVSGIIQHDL
substance,measurement,setting,value
"Tat-cyclo-CRLMVL (head to tail) [P2, cyclo-CRLMVL tagged with Tat peptide via a disulfide bond; used as negative control]",CAIX mRNA,[1],no effect
same,HUVEC tubularization / tubule length,[2],has no effect
same,effect on constitutive luciferase signal,[3],do not affect
same,effect on HIF-2 luciferase reporter signal,[4],do not affect
same,binding to PAS-B domain,PAS-B domain of HIF-1α,no binding; also recorded: did not bind
same,effect on HIF-2 luciferase reporter signal,[5],do not affect
same,VEGF mRNA,[6],had no effect
same,HIF-1 PLA signal,[7],did not have any effect on the PLA signal
